For assay [1], the system named is erythrocytes with low ATP. The following applies: erythrocytes left at low temperature for 20 to 30 days, inosine added, left to stand for 1 hour; cited from earlier work.
Another assay deals with multiple sclerosis. The following applies: administration of inosine; cited from earlier work.
The test system of the next assay is serum uric acid. Kind of assay: Test Example 1: serum uric acid value (uricase-peroxidase method). It counts as in vivo, human. Here is the method:
For a clinical chemistry automatic analyzer, a dry clinical chemistry analysis measuring unit manufactured by ARKRAY, Inc. was used, and the serum uric acid value was measured by using the uricase-peroxidase method.
The following administration test was conducted for 16 Japanese healthy adult males, one subject in Phase I and 15 subjects in Phase II divided into Group A to Group E with 3 subjects each. […]
After Phase I, the following contents were administered to three subjects in each group: […]
(§1) Group E: febuxostat 30 mg twice a day for 14 days.

The subject of another assay is blood X (xanthine). Put plainly: Test Example 1: blood purine concentrations by HPLC, xanthine. It counts as in vivo, human. The note with it: Week 0 to Week 2. As to the method: (§2) Various purines in peripheral blood were measured according to the Reference. Briefly, peripheral blood was collected with EDTA, 500 μL mixed with 500 μL ice cold 8% PCA, immediately vortexed for five seconds, and centrifuged at 12,000×g for 10 minutes at 4° C., and the supernatant was stored at −80° C. The processed sample was then dissolved, with 40 μL of 2M K2CO3 in 6 M KOH added to 650 μL of the solution to simultaneously precipitate the PCA and neutralize the solution. After this solution was centrifuged at 12,000×g for 10 minutes at 4° C., 160 μL of a mobile phase was added to 40 μL of the supernatant and applied to HPLC. The conditions of HPLC were also set according to the Reference. The amounts of purines are expressed in molar quantity contained in 1 L of whole blood.
(§3) Coolen E J, Arts I C, Swennen E L, Bast A, Stuart M A, Dagnelie P C. Simultaneous determination of adenosine triphosphate and its metabolites in human whole blood by RP-HPLC and UV-detection. J Chromatogr B Analyt Technol Biomed Life Sci. 2008 Mar. 15; 864(1-2): 43-51.
(§4) The following administration test was conducted for 16 Japanese healthy adult males, one subject in Phase I and 15 subjects in Phase II divided into Group A to Group E with 3 subjects each.
(§5) After Phase I, the following contents were administered to three subjects in each group:
(§6) Group A: febuxostat 20 mg twice a day for 14 days;
(§7) Group B: inosine 500 mg of twice a day for 14 days;
(§8) Group C: febuxostat 20 mg and inosine 500 mg twice a day for 14 days;
(§9) Group D: febuxostat 20 mg and inosine 1000 mg twice a day for 14 days; and
as §1

In a further assay the test system is urinary uric acid. Kind of assay: Test Example 1: urinary uric acid concentration/creatinine concentration. It counts as in vivo, human. The following applies: Week 0 to Week 2. As to the method:
Since the urinary uric acid concentration varies with urine volume, a urinary uric acid amount was evaluated by using a urinary uric acid/creatinine value acquired by dividing by urinary creatinine concentration. The measurement method of the uric acid value was the same as that for the serum uric acid value.
as §4, §5, §6, §7, §8, §9, §1

The test system of another assay is urinary X. Kind of assay: Test Example 1: urinary purine concentrations, xanthine. In kind it is in vivo, human. The following applies: for change in urinary X concentration: Week 0 to Week 2, FIG. 5, single administration or combined use, doses not distinguished.
The subject of a further assay is blood Hx (hypoxanthine). Put plainly: Test Example 1: blood purine concentrations by HPLC, hypoxanthine. The following applies: Week 0 to Week 2. In kind it is in vivo, human. Here is the method: as §2, §3, §4, §5, §6, §7, §8, §9, §1
The next assay relates to Parkinson's disease. The following applies: administration of inosine; cited from earlier work.
A further assay has as its system blood ATP. Kind of assay: Test Example 1: blood purine concentrations by HPLC, ATP. The note with it: Week 0 to Week 2. It counts as in vivo, human. Here is the method: as §2, §3, §4, §5, §6, §7, §8, §9, §1
The test system of the next assay is urinary Hx. Kind of assay: Test Example 1: urinary purine concentrations, hypoxanthine. In kind it is in vivo, human. The following applies: Week 0 to Week 2, FIG. 5; single administration or combined use, doses not distinguished. As to the method: as §2
The purine concentrations were measured by the same method as in (4).
as §4, §5, §6, §7, §8
Group D: febuxostat 20 mg and inosine 1000 mg twice a day for 14 days; and […]

Assay [2] concerns patients with chronic stable angina. The note with it: high-dose administration; cited from earlier work.
The test system of assay [3] is model mouse of amyotrophic lateral sclerosis. The note with it: model mouse of ALS; cited from earlier work.
The mark [4] stands for this setting: Groups A-C: febuxostat 20 mg and/or inosine 500 mg twice a day for 14 days.
The mark [5] stands for this setting: Group E: febuxostat 60 mg/day alone for 14 days.
The mark [6] stands for this setting: Group E: febuxostat 30 mg twice a day for 14 days.

Bounds are passed on as bounds.

On to `OC[C@H]1O[C@@H](n2cnc3c(O)ncnc32)[C@H](O)[C@@H]1O` [inosine], for which the ATP in erythrocytes result in assay [1] is reported as “ATP increased”. For the same molecule, in the assay with multiple sclerosis, the “symptoms of multiple sclerosis” value is given as “alleviates symptoms”. In addition, the “serum uric acid value increase due to inosine in the presence of febuxostat” value in the assay with serum uric acid (1 g/day inosine in the presence of 40 mg/day of febuxostat (Group C versus Group A)) is 0.3 mg/dL; with serum uric acid (2 g/day inosine in the presence of 40 mg/day of febuxostat (Group D versus Group A)), 1.06 mg/dL. In addition, in the assay on serum uric acid (Phase II Group B: inosine 500 mg twice a day (1 g per day) for 14 days, without febuxostat), the “serum uric acid value raised by, on average” value is 2.57 mg/dL. Moreover, the “serum uric acid value, highest observed (up to)” value in the assay with serum uric acid (Phase II Group B: inosine 500 mg twice a day for 14 days) was “up to 8.1 mg/dL”. The “change in blood X (xanthine) concentration” value in the assay with blood X (xanthine) (setting [4]) was “neither Hx nor X changed”. The “change in urinary uric acid/creatinine” value in the assay with urinary uric acid (setting [4]) is reported as “significantly increased”. Also, in the assay with urinary X (setting [4]), the “maximum concentration of urinary X” value was 61.9 µM. In addition, in the assay with urinary X, the “change in urinary X concentration” value was “no rise”. The “change in blood Hx (hypoxanthine) concentration” value in the assay on blood Hx (hypoxanthine) (setting [4]) was “neither Hx nor X changed”. For the same molecule, in the assay with Parkinson's disease, the “symptoms of Parkinson's disease” value was “alleviates symptoms”. Further, the “change in blood ATP concentration” value with blood ATP (setting [4]) is “not changed”. The “change in urinary Hx concentration” value with urinary Hx is on record as “no rise”.

Take `Oc1ncnc2[nH]ncc12` [allopurinol]: in assay [2], the “symptoms of chronic stable angina” value was “suppressed”.

Regarding `Cc1nc(-c2ccc(OCC(C)C)c(C#N)c2)sc1C(=O)O` [febuxostat], the “serum uric acid value, lowest observed” value in the assay with serum uric acid (Phase II Group E: febuxostat 30 mg twice a day (60 mg/day) for 14 days) was “less than 2 mg/dL”. For the same molecule, the “serum uric acid value reduced by” value in the assay with serum uric acid (Phase II Group E: febuxostat 30 mg twice a day for 14 days) amounted to 3.93 mg/dL; with serum uric acid (Phase II Groups A and C: febuxostat 20 mg alone or with inosine 500 mg, twice a day for 14 days), 2.53 mg/dL. Also, the “serum uric acid value, not reduced to less than” value in the assay on serum uric acid (Phase II, any of the administration examples of 40 mg/day of febuxostat, 14 days) is given as not below 2 mg/dL. Also, the “change in blood X (xanthine) concentration” value in the assay with blood X (xanthine) (setting [5]) is reported as “rise”; in the assay with blood X (xanthine) (setting [4]) it was “significantly increased”. Also, the “change in urinary uric acid/creatinine” value in the assay on urinary uric acid (setting [6]) and in the assay on urinary uric acid (setting [4]) was “reduced” in each case. Moreover, the “maximum concentration of urinary X” value with urinary X (setting [6]) was determined as 867.7 µM; with urinary X (setting [4]) it was 556.0 µM. For the same molecule, in the assay on urinary X, the “change in urinary X concentration” value is given as “significantly increased”. In addition, the results for the “change in blood Hx (hypoxanthine) concentration” value in the assay with blood Hx (hypoxanthine) (setting [5]) and in the assay with blood Hx (hypoxanthine) (setting [4]) were “slight rise” and “unchanged”, respectively. For the same molecule, the “change in blood ATP concentration” value in the assay with blood ATP (setting [6]) is given as “No certain tendency was observed”; in the assay on blood ATP (setting [4]), “not changed”. In assay [3], the “disease progression of amyotrophic lateral sclerosis” value is “inhibits disease progression”. Also, the “change in urinary Hx concentration” value in the assay on urinary Hx is “moderate rise”.
